Counter-ions that a name gives are not always drawn.
Experiments:
[1] = target: MCL1 protein / biotinylated BIM BH3 peptide in RKO cells (Homo sapiens (Human), UniProt Q07820); test: PIxEL: protein-protein interaction in permeabilized cells by ELISA (Assay 5); type: cell-based; details: PIxEL IC50 (median)
Method: PIxEL: Protein-Protein Interaction in Permeabilized Cells by ELISA
Most MCL1 protein molecules are localized at the mitochondria outer membrane and sequester pro-apoptotic proteins through binding of their BCL2 homology domain 3 (BH3 domain). MEB buffer (150 mM mannitol, 10 mM HEPES pH 7.5, 50 mM KCl, 20 μM EDTA, 20 μM EGTA, 5 mM potassium succinate, 0.1% protease-free BSA (SIGMA) with low dose digitonin (0.002%) permeabilizes plasma membrane while leaves live mitochondria, where MCL1 maintains its native localization and conformation. Unlike biophysical assays (e.g. TR-FRET) that use truncated recombinant MCL1 protein, this assay uses full length endogenous MCL1 protein at mitochondria outer membrane. It measures the interaction between MCL1 protein and biotinylated BIM BH3 peptide. Compounds can compete with BIM BH3 peptide to bind to MCL1 protein.
On day 1, RKO colon cancer cell line cells were plated at 0.8 million cells/ml, 100 μl/well in 96-well flat bottom TC plates (Corning). MCL1 antibody (Santa Cruz sc-12756) were diluted at 200 fold (final concentration 1 μg/ml) in carbonate buffer (Thermo Fisher Scientific, pH 9.6), and 50 μl of diluted antibody was added to each well of high bind ELISA plates ([…]). Each plate was tapped to make sure liquid covering entire bottom of wells and incubate at 37° C. overnight.
On the second day, MCL1 antibody was washed from ELISA plate. 250 μl Odyssey® Blocking Buffer (PBS) (Li-Cor) was added to each well, incubated at room temperature for at least 1 hour, then washed once with 250 μl 1×PBST. Plates with RKO cells were gently washed once with 100 μl/well PBS, once with 100 μl/well MEB buffer without digitonin, then 100 μl of MEB buffer with 0.002% digitonin was gently added to each well. Compounds were added with HP Tecan compound dispenser in 3-fold dilution series, highest dose 30 μM, 10-dose per compound in quadruplicates. Biotin-BIM peptide (synthesized by 21st Century) was added with HP Tecan compound dispenser at 0.2 μM immediately after the addition of compounds. Plates were rocked for 1 hour at room temperature. Then MEB buffer was aspirated and 50 μl of CHAPS buffer (50 mM Tris-Cl, pH 7.4, 150 mM NaCl, 1% CHAPS, 1 mM EDTA, 1 mM EGTA, cOmplete protease inhibitors (Roche), PhosSTOP (Roche)) was added to each well. Plates were rocked for 1 hour at 4° C., then 45 μl cell lysate from each well were transferred to ELISA plates coated with MCL1 antibody. Plates were incubated overnight in the cold room with rocking.
On the third day, ELISA plates were washed once with 250 μl 1×PBST. Streptavidin-poly-HRP (Thermo Fisher Scientific) was diluted to 20 ng/ml in Odyssey blocking buffer plus 0.05% Triton-100, and 100 μl was added to each well of the ELISA plate. Plates were incubated at room temperature for 1 hour with rocking, then washed with 100 μl 1×PBST for 3 times. Each SuperSignal ELISA Femto Maximum Sensitivity substrate was added to a 50-ml tube and mixed, then 100 μl of mixed substrate was added to each well. Plates were shaken for 1 minute then luminescence was measured by Envision plate reader […]. Signal of each well were normalized by no-compound control and no-cell control. IC50 was calculated using Graphic Pad PRISM software.

MCL-1 = MCL-1 (Homo sapiens (Human), UniProt Q07820, K194A/K197A/R201A); test: Protein-compound interaction assay (SPR assay, Assay 9); type: binding; details: for Kd: KD (geometric mean), SPR, 25° C.; for koff: read-out: koff (geometric mean), SPR, 25° C.; for kon: read-out: kon (geometric mean), SPR, 25° C.
MCL-1, sequence (Q07820 whole entry K194A/K197A/R201A, looked up): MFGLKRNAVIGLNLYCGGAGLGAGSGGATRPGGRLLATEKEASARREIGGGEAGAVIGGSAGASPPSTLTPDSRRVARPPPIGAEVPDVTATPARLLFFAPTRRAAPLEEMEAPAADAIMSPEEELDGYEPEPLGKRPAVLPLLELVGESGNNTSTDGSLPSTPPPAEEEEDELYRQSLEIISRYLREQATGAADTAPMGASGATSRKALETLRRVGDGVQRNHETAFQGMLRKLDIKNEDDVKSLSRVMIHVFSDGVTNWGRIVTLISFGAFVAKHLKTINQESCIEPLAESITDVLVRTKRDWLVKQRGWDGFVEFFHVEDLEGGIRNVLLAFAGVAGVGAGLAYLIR
Description: Assay 9 Protein-Compound Interaction Assay (SPR Assay)
The ability of the compounds described in this invention to bind to MCL-1 may be determined using surface plasmon resonance (SPR). This allows for the quantification of binding in terms of the equilibrium dissociation constant (KD [M]), as well as association and dissociation rate constants (kon [1/Ms] and koff [1/s], respectively). The measurements may be performed using Biacore® T200 or Biacore® S200 instruments (GE Healthcare).
Briefly, carboxymethylated dextran biosensor chips (Series S Sensor Chip CMS, GE Healthcare) were activated with 1-ethyl-3-(3-dimethylaminopropyl)-carbodiimide hydrochloride (EDC) and N-hydroxysuccinimide (NHS) according to the supplier's instructions. MBP-MCL-1 was diluted in 1×PBS-P+ (GE Healthcare) and injected on the activated chip surface. Subsequently, a solution of 1 M ethanolamine-HCl (GE Healthcare) was injected to block unreacted groups, resulting in approximately 400-2500 response units (RU) of immobilized protein. A reference surface was generated by treatment with NHS-EDC and ethanolamine-HCl. […] Compounds were injected for 60 s followed by a dissociation time of up to 1000 s.
The double-referenced sensorgrams were fit to a simple reversible Langmuir 1:1 reaction mechanism as implemented in the Biacore® T200 and S200 evaluation software (T200 evaluation software version 2.0 and S200 evaluation software version 1.0, GE Healthcare).

MCL1 protein / biotinylated BIM BH3 peptide in RKO cells, sequence (Q07820 whole entry): as the sequence (Q07820 whole entry K194A/K197A/R201A, looked up) above, with A194K, A197K, A201R counted along it

Compound	IC50 [1] [nM]	other results
CCc1c2c(nn1C)C(CCN1CCOCC1)OCCCCn1c(C(=O)O)c(CCCOc3cccc4cc(F)ccc34)c3ccc(F)c-2c31 (single isomer, unassigned; enantiomer 2) [Example 51, (−)-3-ethyl-4-fluoro-7-{3-[(6-fluoronaphthalen-1-yl)oxy]propyl}-2-methyl-15-[2-(morpholin-4-yl)ethyl]-2,10,11,12,13,15-hexahydropyrazolo[4′,3′:9,10][1,6]oxazacycloundecino[8,7,6-hi]indole-8-carboxylic Acid (Enantiomer 2)]	12000	–
CCc1c2c(nn1C)C(CCC1CCOCC1)OCCCCn1c(C(=O)O)c(CCCOc3cccc4cc(F)ccc34)c3ccc(Cl)c-2c31 (single isomer, unassigned; enantiomer 1) [Example 61, 4-chloro-3-ethyl-7-{3-[(6-fluoronaphthalen-1-yl)oxy]propyl}-2-methyl-15-[2-(oxan-4-yl)ethyl]-2,10,11,12,13,15-hexahydropyrazolo[4′,3′:9,10][1,6]oxazacycloundecino[8,7,6-hi]indole-8-carboxylic Acid (Enantiomer 1)]	–	Kd (MCL-1): 1.3 nM; koff (MCL-1): 0.0021 s⁻¹; kon (MCL-1): 1.6e+06 M⁻¹ s⁻¹
CCc1c2c(nn1C)C(CC(C)(C)O)OCCCCn1c(C(=O)O)c(CCCOc3cccc4cc(F)ccc34)c3ccc(Cl)c-2c31 (single isomer, unassigned; enantiomer 1) [Example 53, (+)-4-chloro-3-ethyl-7-{3-[(6-fluoronaphthalen-1-yl)oxy]propyl}-15-(2-hydroxy-2-methylpropyl)-2-methyl-2,10,11,12,13,15-hexahydropyrazolo[4′,3′:9,10][1,6]oxazacycloundecino[8,7,6-hi]indole-8-carboxylic Acid—N-ethylethanamine Salt (Enantiomer 1)]	135	–
CCc1c2c(nn1C)C(C(F)(F)F)OCCCCn1c(C(=O)O)c(CCCOc3cccc4ccccc34)c3ccc(Cl)c-2c31 (racemic) [Example 27, (rac)-4-Chloro-3-ethyl-2-methyl-7-{3-[(naphthalen-1-yl)oxy]propyl}-15-(trifluoromethyl)-2,10,11,12,13,15-hexahydropyrazolo[4′,3′:9,10][1,6]oxazacycloundecino[8,7,6-hi]indole-8-carboxylic Acid]	1960	–
Cc1c2c(nn1C)C(CCN1CCOCC1)OCCCCn1c(C(=O)O)c(CCCOc3cccc4cc(F)ccc34)c3ccc(Cl)c-2c31 (single isomer, unassigned; enantiomer 2) [Example 18, 4-chloro-7-{3-[(6-fluoronaphthalen-1-yl)oxy]propyl}-2,3-dimethyl-15-[2-(morpholin-4-yl)ethyl]-2,10,11,12,13,15-hexahydropyrazolo[4′,3′:9,10][1,6]oxazacycloundecino[8,7,6-hi]indole-8-carboxylic Acid (Enantiomer 2)]	2430	–
CCc1c2c(nn1C)C1CCCCN1CCCCn1c(C(=O)O)c(CCCOc3cccc4ccccc34)c3ccc(Cl)c-2c31 (racemic) [Example 102, (rac)-18-chloro-1-ethyl-2-methyl-15-[3-(1-naphthyloxy)propyl]-2,3b,4,5,6,7,9,10,11,12-decahydropyrazolo[3′,4′:8,9]pyrido[1′,2′:6,7][1,6]diazacycloundecino[10,11,1-hi]indole-14-carboxylic Acid]	59.9	–
Cc1c2c(nn1C)C(C)OCCCCn1c(C(=O)O)c(CCCOc3cccc4ccccc34)c3cccc-2c31 (single isomer, unassigned; stereoisomer 1) [Example 2, 2,3,15-trimethyl-7-[3-(naphthalen-1-yloxy)propyl]-2,10,11,12,13,15-hexahydropyrazolo[4′,3′:9,10][1,6]oxazacycloundecino[8,7,6-hi]indole-8-carboxylic Acid Trifluoroacetic Acid Salt (Stereoisomer 1)]	–	Kd (MCL-1): 11 nM; koff (MCL-1): 0.067 s⁻¹; kon (MCL-1): 5.9e+06 M⁻¹ s⁻¹
Cc1c2c(nn1C)C(C1CC1)OCCCCn1c(C(=O)O)c(CCCOc3cccc4ccccc34)c3ccc(Cl)c-2c31 (single isomer, unassigned; enantiomer 1) [Example 35, (+)-4-chloro-15-cyclopropyl-2,3-dimethyl-7-{3-[(naphthalen-1-yl)oxy]propyl}-2,10,11,12,13,15-hexahydropyrazolo[4′,3′:9,10][1,6]oxazacycloundecino[8,7,6-hi]indole-8-carboxylic Acid N-ethylethanamine Salt (Enantiomer 1)]	1640	–
CCc1c2c(nn1C)C1CCCN1CCCCn1c(C(=O)O)c(CCCOc3cccc4cc(F)ccc34)c3ccc(Cl)c-2c31 (single isomer, unassigned; (+)) [Example 105, (+)-17-chloro-1-ethyl-14-{3-[(6-fluoronaphthalen-1-yl)oxy]propyl}-2-methyl-3b,4,5,6,8,9,10,11-octahydro-2H-pyrazolo[3′,4′:8,9]pyrrolo[1′,2′:6,7][1,6]diazacycloundecino[10,11,1-hi]indole-13-carboxylic Acid]	63	–
CCc1c2c(nn1C)C(c1ccccc1)OCCCCn1c(C(=O)O)c(CCCOc3cccc4cc(F)ccc34)c3ccc(Cl)c-2c31 (racemic) [Example 59, (rac)-4-chloro-3-ethyl-7-{3-[(6-fluoronaphthalen-1-yl)oxy]propyl}-2-methyl-(15-rac)-phenyl-2,10,11,12,13,15-hexahydropyrazolo[4′,3′:9,10][1,6]oxazacycloundecino[8,7,6-hi]indole-8-carboxylic Acid]	190	–
CCc1c2c(nn1C)C(C1CC1)OCCCCn1c(C(=O)O)c(CCCOc3cccc4cc(F)ccc34)c3ccc(Cl)c-2c31 (single isomer, unassigned; enantiomer 1) [Example 39, (+)-4-chloro-15-cyclopropyl-3-ethyl-7-{3-[(6-fluoronaphthalen-1-yl)oxy]propyl}-2-methyl-2,10,11,12,13,15-hexahydropyrazolo[4′,3′:9,10][1,6]oxazacycloundecino[8,7,6-hi]indole-8-carboxylic Acid—N-ethylethanamine Salt (Enantiomer 1)]	317	–
Cc1c2c(nn1C)C(CCO)OCCCCn1c(C(=O)O)c(CCCOc3cccc4ccccc34)c3ccc(Cl)c-2c31 (racemic) [Example 26, (rac)-4-chloro-15-(2-hydroxyethyl)-2,3-dimethyl-7-{3-[(naphthalen-1-yl)oxy]propyl}-2,10,11,12,13,15-hexahydropyrazolo[4′,3′:9,10][1,6]oxazacycloundecino[8,7,6-hi]indole-8-carboxylic Acid]	1250	–
Cc1c2c(nn1C)C(C1CC1)OCCCCn1c(C(=O)O)c(CCCOc3cccc4ccccc34)c3ccc(Cl)c-2c31 (racemic) [Example 28, (rac)-4-Chloro-15-cyclopropyl-2,3-dimethyl-7-{3-[(naphthalen-1-yl)oxy]propyl}-2,10,11,12,13,15-hexahydropyrazolo[4′,3′:9,10][1,6]oxazacycloundecino[8,7,6-hi]indole-8-carboxylic Acid]	2330	–

Source: US11440923B2, “Substituted macrocyclic indole derivatives” (Bayer Aktiengesellschaft, priority 2017, dated 2022)
